Experimental data: US10215746B2, “Methods for diagnosis and intervention of hepatic disorders” (The Regents of the University of Colorado, priority 2005, dated 2019)
Like-named read-outs stand apart in the source and are kept apart here.

What was measured:
[1] = in vivo; cited from earlier work
[2] = cited from earlier work
[3] = single intravenous injection; cited from earlier work
[4] = cited from earlier work; remark: listed apart in the source
chronic hepatitis C = details: 90 μg/week vs no treatment; cited from earlier work
[5] = Dissolution of cholate for oral solution; format: physicochemical; details: aqueous sodium bicarbonate

Compound: Cc1cc(=O)n(-c2ccccc2)n1C [antipyrine]
- drug appearing unchanged in the urine [1]: 5%

Compound: CC1(C)C(/C=C/C=C/C=C/C=C2\N(CCCCS(=O)(=O)O)c3ccc4ccccc4c3C2(C)C)=[N+](CCCCS(=O)(=O)[O-])c2ccc3ccccc3c21 [Indocyanine green]
- first-pass hepatic extraction ([2]; administered intravenously): up to 80%

Compound: O=C[C@H](O)[C@@H](O)[C@@H](O)[C@H](O)CO [galactose]
- share of total plasma elimination due to distribution and metabolism outside the liver [3]: 40%
- share of total plasma elimination due to hepatic clearance [3]: Approximately 60%

Compound: CCN(CC)CC(=O)Nc1c(C)cccc1C [Lidocaine]
- first pass elimination ([2]; in vivo): up to 81%
- side effects (sensory symptoms) ([4]; lower dose (less than 1 mg/kg such as 0.5 mg/kg) iv): 30%
- side effects (sensory symptoms) ([4]; standard dose 1 mg/kg iv over 2 minutes): 53%

Compound: peginterferon alfa-2a [PegIFN]
- effect on clinical or histological outcomes (chronic hepatitis C): did not affect clinical or histological outcomes

Compound: C[C@H](CCC(=O)O)[C@H]1CC[C@H]2[C@@H]3[C@H](O)C[C@@H]4C[C@H](O)CC[C@]4(C)[C@H]3C[C@H](O)[C@]12C [Cholate, cholic acid]
- dissolution [5]: easily dissolved
